Measurements as given in ChEMBL document CHEMBL5724914, “Linking interpersonal differences in gut microbiota composition and drug biotransformation activity” (2024).
Where a SMILES comes first, the peptide text is derived from it. [ ]: non-standard residue; d: D form. pGlu = O=C1CC[C@@H](C(=O)O)N1; Thz = O=C(O)[C@@H]1CSCN1

What was measured:
[1] = The drug is tested on Z-024 corresponding to pig gut metagenome with ENA study accession number: PRJEB37062 and ENA sample accession number: ERS12561823 for biotransformation under anaerobic condition. The drug concentrations were measured over 9 timepoints collected between 0 and 24 hours of incubation by liquid-chromatography-coupled mass spectrometry (LC–MS); settings: 2 µM
[2] = The drug is tested on Z-017 corresponding to mouse gut metagenome with ENA study accession number: PRJEB37062 and ENA sample accession number: ERS12561816 for biotransformation under anaerobic condition. The drug concentrations were measured over 9 timepoints collected between 0 and 24 hours of incubation by liquid-chromatography-coupled mass spectrometry (LC–MS); settings: 2 µM
[3] = The drug is tested on Z-009 corresponding to pig gut metagenome with ENA study accession number: PRJEB37062 and ENA sample accession number: ERS12561809 for biotransformation under anaerobic condition. The drug concentrations were measured over 9 timepoints collected between 0 and 24 hours of incubation by liquid-chromatography-coupled mass spectrometry (LC–MS); settings: 2 µM
[4] = The drug is tested on Z-001 corresponding to mouse gut metagenome with ENA study accession number: PRJEB37062 and ENA sample accession number: ERS12561801 for biotransformation under anaerobic condition. The drug concentrations were measured over 9 timepoints collected between 0 and 24 hours of incubation by liquid-chromatography-coupled mass spectrometry (LC–MS); settings: 2 µM
[5] = The drug is tested on WLS-350 corresponding to human gut metagenome with ENA study accession number: PRJEB37062 and ENA sample accession number: ERS12561789 for biotransformation under anaerobic condition. The drug concentrations were measured over 9 timepoints collected between 0 and 24 hours of incubation by liquid-chromatography-coupled mass spectrometry (LC–MS); settings: 2 µM
[6] = The drug is tested on WLS-220 corresponding to human gut metagenome with ENA study accession number: PRJEB37062 and ENA sample accession number: ERS12561769 for biotransformation under anaerobic condition. The drug concentrations were measured over 9 timepoints collected between 0 and 24 hours of incubation by liquid-chromatography-coupled mass spectrometry (LC–MS); settings: 2 µM
[7] = The drug is tested on WLS-086 corresponding to human gut metagenome with ENA study accession number: PRJEB37062 and ENA sample accession number: ERS12561752 for biotransformation under anaerobic condition. The drug concentrations were measured over 9 timepoints collected between 0 and 24 hours of incubation by liquid-chromatography-coupled mass spectrometry (LC–MS); settings: 2 µM
[8] = The drug is tested on WLS-073 corresponding to human gut metagenome with ENA study accession number: PRJEB37062 and ENA sample accession number: ERS12561749 for biotransformation under anaerobic condition. The drug concentrations were measured over 9 timepoints collected between 0 and 24 hours of incubation by liquid-chromatography-coupled mass spectrometry (LC–MS); settings: 2 µM
[9] = The drug is tested on WLS-052 corresponding to human gut metagenome with ENA study accession number: PRJEB37062 and ENA sample accession number: ERS12561747 for biotransformation under anaerobic condition. The drug concentrations were measured over 9 timepoints collected between 0 and 24 hours of incubation by liquid-chromatography-coupled mass spectrometry (LC–MS); settings: 2 µM
[10] = The drug is tested on WLS-038 corresponding to human gut metagenome with ENA study accession number: PRJEB37062 and ENA sample accession number: ERS12561745 for biotransformation under anaerobic condition. The drug concentrations were measured over 9 timepoints collected between 0 and 24 hours of incubation by liquid-chromatography-coupled mass spectrometry (LC–MS); settings: 2 µM
[11] = human gut metagenome, 24 h, 2 µM
[12] = human gut metagenome, 24 h, 2 µM; remark: listed apart in the source
[13] = human gut metagenome, 24 h, 2 µM; remark: listed apart in the source
[14] = human gut metagenome, 24 h, 2 µM; remark: listed apart in the source
[15] = human gut metagenome, 24 h, 2 µM; remark: listed apart in the source
[16] = human gut metagenome, 24 h, 2 µM; remark: listed apart in the source
[17] = human gut metagenome, 24 h, 2 µM; remark: listed apart in the source
[18] = human gut metagenome, 24 h, 2 µM; remark: listed apart in the source
[19] = human gut metagenome, 24 h, 2 µM; remark: listed apart in the source
[20] = The drug is tested on Z-010 corresponding to metagenome with ENA study accession number: PRJEB37062 and ENA sample accession number: ERS12561810 for biotransformation under anaerobic condition. The drug concentrations were measured over 9 timepoints collected between 0 and 24 hours of incubation by liquid-chromatography-coupled mass spectrometry (LC–MS); settings: 2 µM
Also: call rule not given here.

Row | SMILES | Bacterial Biotransformation [1] | Bacterial Biotransformation [2] | Bacterial Biotransformation [3] | Bacterial Biotransformation [4] | Bacterial Biotransformation [5] | Bacterial Biotransformation [6] | Bacterial Biotransformation [7] | Bacterial Biotransformation [8] | Bacterial Biotransformation [9] | Bacterial Biotransformation [10] | Bacterial Biotransformation [11] | Bacterial Biotransformation [12] | Bacterial Biotransformation [13] | Bacterial Biotransformation [14] | Bacterial Biotransformation [15] | Bacterial Biotransformation [16] | Bacterial Biotransformation [17] | Bacterial Biotransformation [18] | Bacterial Biotransformation [19] | Bacterial Biotransformation [20]
1 | CCC(COC(=O)c1cc(OC)c(OC)c(OC)c1)(c1ccccc1)N(C)C.O=C(O)/C=C\C(=O)O (configuration not stated) | Compound NOT metabolized | Compound NOT metabolized | Compound metabolized | Compound NOT metabolized | Compound NOT metabolized | Compound metabolized | Compound NOT metabolized | Compound NOT metabolized | Compound NOT metabolized | Compound NOT metabolized | Compound NOT metabolized | Compound NOT metabolized | Compound NOT metabolized | Compound metabolized | Compound NOT metabolized | Compound metabolized | Compound metabolized | Compound metabolized | Compound NOT metabolized | –
2 | COc1ccc(CCN(C)CCCC(C#N)(c2ccc(OC)c(OC)c2)C(C)C)cc1OC (configuration not stated) | Compound metabolized | Compound NOT metabolized | Compound metabolized | Compound NOT metabolized | Compound metabolized | Compound metabolized | Compound metabolized | Compound metabolized | Compound NOT metabolized | Compound NOT metabolized | Compound metabolized | Compound metabolized | Compound NOT metabolized | Compound NOT metabolized | Compound NOT metabolized | Compound metabolized | Compound metabolized | Compound metabolized | Compound NOT metabolized | –
3 | O=C(NCc1ccccc1)OCCO [BURAMATE] | Compound NOT metabolized | – | Compound NOT metabolized | Compound NOT metabolized | Compound NOT metabolized | Compound NOT metabolized | Compound NOT metabolized | Compound NOT metabolized | Compound NOT metabolized | Compound NOT metabolized | Compound NOT metabolized | Compound NOT metabolized | Compound NOT metabolized | Compound NOT metabolized | Compound NOT metabolized | Compound NOT metabolized | Compound NOT metabolized | Compound NOT metabolized | Compound NOT metabolized | Compound NOT metabolized
4 | c1ccc([C@H]2CN3CCSC3=N2)cc1 [LEVAMISOLE] | – | Compound NOT metabolized | – | Compound NOT metabolized | Compound metabolized | Compound metabolized | – | – | Compound NOT metabolized | Compound metabolized | Compound metabolized | Compound metabolized | Compound metabolized | Compound metabolized | Compound metabolized | Compound metabolized | Compound metabolized | Compound metabolized | Compound metabolized | –
5 | C#C[C@]1(O)CC[C@H]2[C@@H]3CCC4=CC(=O)CC[C@@H]4[C@H]3CC[C@@]21CC [LEVONORGESTREL] | – | Compound metabolized | – | Compound NOT metabolized | Compound metabolized | Compound metabolized | Compound metabolized | Compound NOT metabolized | Compound metabolized | – | Compound metabolized | Compound metabolized | Compound metabolized | Compound NOT metabolized | Compound metabolized | Compound metabolized | Compound metabolized | Compound metabolized | – | –
6 | O=C1CC[C@@H](C(=O)N2CSC[C@H]2C(=O)O)N1 [PIDOTIMOD] ([pGlu]-[Thz]-OH) | Compound metabolized | Compound NOT metabolized | – | Compound NOT metabolized | Compound NOT metabolized | Compound NOT metabolized | Compound NOT metabolized | Compound NOT metabolized | – | Compound metabolized | – | Compound NOT metabolized | – | – | Compound NOT metabolized | Compound NOT metabolized | Compound NOT metabolized | Compound NOT metabolized | Compound NOT metabolized | Compound metabolized
